Where two headings read alike, the source gives them in different places.
Assays:
[1] = target: Photinus pyralis (firefly) luciferase (Photinus pyralis, UniProt P08659); test: biochemical; format: biochemical
human CYP2C9 = human CYP2C9 (Homo sapiens, UniProt P11712)
human CYP2C19 = human CYP2C19 (Homo sapiens, UniProt P33261)
CYP3A4 = CYP3A4 (Homo sapiens, UniProt P08684)
human CYP1A2 = target: T1, human CYP1A2 (Homo sapiens, UniProt P05177)
T1 sequence (P05177 1-516): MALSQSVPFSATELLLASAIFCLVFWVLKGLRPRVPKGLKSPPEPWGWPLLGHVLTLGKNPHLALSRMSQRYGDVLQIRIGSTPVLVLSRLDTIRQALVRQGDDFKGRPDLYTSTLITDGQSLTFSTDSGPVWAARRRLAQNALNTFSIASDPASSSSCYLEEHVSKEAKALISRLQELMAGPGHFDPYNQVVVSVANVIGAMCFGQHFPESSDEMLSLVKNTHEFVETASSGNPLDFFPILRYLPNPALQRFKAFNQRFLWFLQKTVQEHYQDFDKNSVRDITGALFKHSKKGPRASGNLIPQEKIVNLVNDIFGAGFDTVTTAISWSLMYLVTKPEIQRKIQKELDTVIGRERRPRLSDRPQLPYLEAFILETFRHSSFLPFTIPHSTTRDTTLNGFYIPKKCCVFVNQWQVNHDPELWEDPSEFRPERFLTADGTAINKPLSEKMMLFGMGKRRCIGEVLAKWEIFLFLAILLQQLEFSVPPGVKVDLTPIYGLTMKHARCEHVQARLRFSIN

human CYP2D6 = human CYP2D6 (Homo sapiens, UniProt P10635)
Chain of human CYP2D6 (P10635 whole entry): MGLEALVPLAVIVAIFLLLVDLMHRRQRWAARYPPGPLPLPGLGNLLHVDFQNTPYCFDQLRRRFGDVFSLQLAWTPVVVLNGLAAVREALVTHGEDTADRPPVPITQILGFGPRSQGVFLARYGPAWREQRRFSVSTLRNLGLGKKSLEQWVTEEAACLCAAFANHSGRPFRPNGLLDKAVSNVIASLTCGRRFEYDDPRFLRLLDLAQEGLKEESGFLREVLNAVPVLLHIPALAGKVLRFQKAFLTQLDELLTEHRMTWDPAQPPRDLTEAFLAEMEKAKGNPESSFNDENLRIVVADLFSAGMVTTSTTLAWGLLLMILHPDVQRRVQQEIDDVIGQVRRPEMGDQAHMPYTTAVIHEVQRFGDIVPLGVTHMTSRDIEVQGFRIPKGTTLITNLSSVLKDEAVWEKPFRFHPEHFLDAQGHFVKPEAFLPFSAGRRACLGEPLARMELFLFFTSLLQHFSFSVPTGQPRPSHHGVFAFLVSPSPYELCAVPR

Chain of human CYP2C19 (P33261 whole entry): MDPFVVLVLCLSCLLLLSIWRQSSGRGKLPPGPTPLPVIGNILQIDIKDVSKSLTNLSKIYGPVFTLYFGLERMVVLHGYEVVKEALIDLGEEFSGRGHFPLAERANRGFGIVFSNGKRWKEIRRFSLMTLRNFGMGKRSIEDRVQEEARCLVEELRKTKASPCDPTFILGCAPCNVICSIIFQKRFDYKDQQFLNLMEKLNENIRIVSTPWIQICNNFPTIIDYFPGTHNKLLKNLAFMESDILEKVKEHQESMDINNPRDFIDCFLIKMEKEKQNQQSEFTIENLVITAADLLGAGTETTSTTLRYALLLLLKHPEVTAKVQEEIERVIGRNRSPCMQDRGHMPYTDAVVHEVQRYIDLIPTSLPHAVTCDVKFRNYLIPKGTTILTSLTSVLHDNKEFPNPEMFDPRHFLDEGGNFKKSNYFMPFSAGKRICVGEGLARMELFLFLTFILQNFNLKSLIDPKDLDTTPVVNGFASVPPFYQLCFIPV
Chain of human CYP2C9 (P11712 whole entry): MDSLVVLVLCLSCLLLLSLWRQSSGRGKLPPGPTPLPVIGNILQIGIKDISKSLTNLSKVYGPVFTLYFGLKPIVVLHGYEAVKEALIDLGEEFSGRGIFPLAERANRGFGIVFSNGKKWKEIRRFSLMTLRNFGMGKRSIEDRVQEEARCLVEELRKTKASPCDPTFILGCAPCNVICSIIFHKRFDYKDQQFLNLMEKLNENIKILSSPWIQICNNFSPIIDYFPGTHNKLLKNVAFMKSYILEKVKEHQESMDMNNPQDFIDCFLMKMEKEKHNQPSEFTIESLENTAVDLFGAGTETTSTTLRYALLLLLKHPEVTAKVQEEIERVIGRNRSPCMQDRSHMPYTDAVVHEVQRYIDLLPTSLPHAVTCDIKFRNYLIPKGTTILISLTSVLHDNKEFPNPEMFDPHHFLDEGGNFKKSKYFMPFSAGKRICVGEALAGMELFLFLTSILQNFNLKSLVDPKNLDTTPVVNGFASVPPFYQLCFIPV
Chain of Photinus pyralis (firefly) luciferase (P08659 whole entry): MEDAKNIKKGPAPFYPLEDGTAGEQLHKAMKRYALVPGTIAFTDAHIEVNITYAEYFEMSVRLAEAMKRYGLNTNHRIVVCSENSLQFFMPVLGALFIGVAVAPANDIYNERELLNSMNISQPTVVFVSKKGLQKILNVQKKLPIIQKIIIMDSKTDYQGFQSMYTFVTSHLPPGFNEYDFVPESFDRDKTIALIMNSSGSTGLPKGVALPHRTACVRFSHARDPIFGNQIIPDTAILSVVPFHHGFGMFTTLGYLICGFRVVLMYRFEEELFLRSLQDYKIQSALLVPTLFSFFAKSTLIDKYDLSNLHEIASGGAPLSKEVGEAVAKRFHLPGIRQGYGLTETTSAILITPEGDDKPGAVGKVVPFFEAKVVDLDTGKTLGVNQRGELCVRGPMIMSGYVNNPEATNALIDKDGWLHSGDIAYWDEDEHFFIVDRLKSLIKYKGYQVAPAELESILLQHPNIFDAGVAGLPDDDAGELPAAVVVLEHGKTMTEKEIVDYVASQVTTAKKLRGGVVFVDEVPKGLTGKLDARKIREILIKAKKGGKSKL
Chain of CYP3A4 (P08684 whole entry): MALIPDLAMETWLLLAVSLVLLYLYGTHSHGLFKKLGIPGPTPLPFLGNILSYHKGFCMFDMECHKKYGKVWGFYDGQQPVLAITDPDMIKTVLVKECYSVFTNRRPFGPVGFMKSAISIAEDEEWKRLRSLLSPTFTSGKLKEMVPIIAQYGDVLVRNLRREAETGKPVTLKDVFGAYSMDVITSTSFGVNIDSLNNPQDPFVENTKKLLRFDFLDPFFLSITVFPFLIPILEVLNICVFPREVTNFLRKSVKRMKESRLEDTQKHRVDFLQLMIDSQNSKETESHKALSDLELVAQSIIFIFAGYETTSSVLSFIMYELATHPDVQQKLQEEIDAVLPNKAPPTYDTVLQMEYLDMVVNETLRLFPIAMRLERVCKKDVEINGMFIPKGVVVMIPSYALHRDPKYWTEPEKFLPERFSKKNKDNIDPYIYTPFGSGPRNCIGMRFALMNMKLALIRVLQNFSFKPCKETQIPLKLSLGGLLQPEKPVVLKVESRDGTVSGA

Molecule: Cl.FC(F)(F)c1cccc(C2=CCN(CCc3ccc4ccccc4c3)CC2)c1 [Xaliproden hydrochloride]
- Luciferase IC50 (half-maximal inhibitory concentration) [1]: Inactive
- CYP2C9 Efficacy (human CYP2C9): 22.52 ± 6.28 (29 ± 5) %
- CYP2C9 IC50 (half-maximal inhibitory concentration) (human CYP2C9): 22.52 ± 6.28 (29 ± 5) µM
- CYP2C19 IC50 (half-maximal inhibitory concentration) (human CYP2C19): Inactive
- AC50 (CYP3A4): 19.8 µM
- CYP3A4 IC50 (half-maximal inhibitory concentration) (CYP3A4): 19.77 ± 4.14 (120 ± 18) µM
- CYP1A2 Efficacy (human CYP1A2): 28.62 ± 14.29 (-37 ± 3) %
- IC50 (human CYP1A2): 28.6 µM
- CYP2D6 Efficacy (human CYP2D6): 0.28 ± 0.18 (-100 ± 3) %
- IC50 (human CYP2D6): 0.28 µM

Molecule: CCCCCCCC[N+](CCCCCCCC)(CCCCCCCC)CCCCCCCC.[Br-] [Tetra-N-octylammonium bromide]
- IC50 ([1]; read-out: Luciferase IC50): 89.2 µM
- IC50 (human CYP2C9): 34.2 µM
- IC50 (human CYP2C19): 16.4 µM
- IC50 (CYP3A4): 1.87 µM
- IC50 (human CYP1A2): 73.8 µM
- IC50 (human CYP2D6): 0.4 µM

Molecule: Pentaerythritol allyl ether
- Luciferase IC50 (half-maximal inhibitory concentration) [1]: Inactive
- IC50 (human CYP2C9): 5.98 µM
- IC50 (human CYP2C19): 0.83 µM
- IC50 (CYP3A4): 13 µM
- IC50 (human CYP1A2): 23.6 µM
- CYP2D6 IC50 (half-maximal inhibitory concentration) (human CYP2D6): Inactive

Molecule: Cl.Clc1ccc(Cn2c(CN3CCCC3)nc3ccccc32)cc1 [Clemizole hydrochloride]
- Luciferase IC50 (half-maximal inhibitory concentration) [1]: Inactive
- CYP2C9 Efficacy (in parenthesis) (human CYP2C9): 16.12 ± 1.09 (-82 ± 4) %
- IC50 (human CYP2C9): 16.1 µM
- CYP2C19 Efficacy (in parenthesis) (human CYP2C19): 0.68 ± 0.17 (-140 ± 7) %
- IC50 (human CYP2C19): 0.68 µM
- CYP3A4 Efficacy (in parenthesis) (CYP3A4): 6.24 ± 1.17 (-72 ± 1) %
- IC50 (CYP3A4): 6.24 µM
- CYP1A2 Efficacy (in parenthesis) (human CYP1A2): 17.64 ± 0.46 (-72 ± 13) %
- IC50 (human CYP1A2): 17.6 µM
- CYP2D6 Efficacy (in parenthesis) (human CYP2D6): 1.56 ± 0.18 (-101 ± 1) %
- IC50 (human CYP2D6): 1.56 µM

Molecule: CCCCCCCCCCCCCC[P+](CCCC)(CCCC)CCCC.CCCCCCCCCCCCc1ccc(S(=O)(=O)[O-])cc1
- Luciferase IC50 (half-maximal inhibitory concentration) [1]: Inactive
- CYP2C9 Efficacy (human CYP2C9): 15.74 ± 3.82 (-84 ± 8) %
- CYP2C9 Efficacy (in parenthesis) (human CYP2C9): 15.74 ± 3.82 (-84 ± 8) %
- IC50 (human CYP2C9): 15.7 µM
- CYP2C19 Efficacy (human CYP2C19): 21.96 ± 3.74 (-142 ± 38) %
- CYP2C19 Efficacy (in parenthesis) (human CYP2C19): 21.96 ± 3.74 (-142 ± 38) %
- IC50 (human CYP2C19): 22 µM
- AC50 (CYP3A4): 7.93 µM
- CYP3A4 Efficacy (in parenthesis) (CYP3A4): 7.93 ± 2.21 (104 ± 17) %
- CYP3A4 IC50 (half-maximal inhibitory concentration) (CYP3A4): 7.93 ± 2.21 (104 ± 17) µM
- CYP1A2 AC50 (half-maximal activity concentration) (human CYP1A2): Inconclusive inhibitor
- CYP1A2 Efficacy (in parenthesis) (human CYP1A2): 24.26 ± 16.34 (-39 ± 1) %
- IC50 (human CYP1A2): 24.3 µM
- CYP2D6 Efficacy (human CYP2D6): 0.21 ± 0.10 (-107 ± 3) %
- CYP2D6 Efficacy (in parenthesis) (human CYP2D6): 0.21 ± 0.1 (-107 ± 3) %
- IC50 (human CYP2D6): 0.21 µM

Molecule: C[C@@H]1CN(CCCn2c3ccccc3c3ccccc32)C[C@H](C)N1.Cl.Cl [Rimcazole dihydrochloride]
- Luciferase IC50 [1]: Inactive
- CYP2C9 IC50 (human CYP2C9): Inactive
- CYP2C19 IC50 (human CYP2C19): Inactive
- IC50 (CYP3A4): 1.84 µM
- IC50 (human CYP1A2): 10.6 µM
- CYP2D6 Efficacy (human CYP2D6): 0.4 ± 0.03 (-102 ± 4) %

Molecule: FC(F)(F)c1ccccc1-n1ccnc1
- Luciferase IC50 (half-maximal inhibitory concentration) [1]: Inactive
- IC50 (human CYP2C9): 8.39 µM
- CYP2C19 Efficacy (human CYP2C19): 9.3 ± 5.41 (-172 ± 73) %
- IC50 (CYP3A4): 0.44 µM
- IC50 (human CYP1A2): 4.14 µM
- IC50 (human CYP2D6): 2.28 µM

Molecule: Cl.OC(CNCC(O)C1CCc2cc(F)ccc2O1)C1CCc2cc(F)ccc2O1 (racemic) [rac Nebivolol hydrochloride]
- Luciferase IC50 (half-maximal inhibitory concentration) [1]: Inactive
- CYP2C9 IC50 (half-maximal inhibitory concentration) (human CYP2C9): Inactive
- CYP2C19 Efficacy (human CYP2C19): 41.28 ± 3.36 (-60 ± 3) %
- IC50 (human CYP2C19): 41.3 µM
- AC50 (CYP3A4): 16.1 µM
- CYP3A4 IC50 (half-maximal inhibitory concentration) (CYP3A4): 16.12 ± 1.09 (65 ± 10) µM
- CYP1A2 IC50 (half-maximal inhibitory concentration) (human CYP1A2): Inactive
- CYP2D6 Efficacy (human CYP2D6): 0.25 ± 0.05 (-104 ± 2) %
- IC50 (human CYP2D6): 0.25 µM

Molecule: COP(=S)(OC)SCn1nnc2ccccc2c1=O [Azinphos-methyl]
- Luciferase Efficacy (in parenthesis) [1]: 47.70 ± 13.48 (-40 ± 2) %
- CYP2C9 Efficacy (in parenthesis) (human CYP2C9; human): 3.88 ± 0.66 (-99 ± 12) %
- CYP2C19 Efficacy (in parenthesis) (human CYP2C19; human): 1.01 ± 0.12 (-134 ± 9) %
- CYP3A4 Efficacy (in parenthesis) (CYP3A4): 11.45 ± 2.62 (-87 ± 5) %
- CYP1A2 Efficacy (in parenthesis) (human CYP1A2; human): 28.26 ± 0 (-93 ± 8) %
- CYP2D6 Efficacy (in parenthesis) (human CYP2D6; human): 55.48 ± 13.48 (-75 ± 13) %

Molecule: COc1ccc(OC)c(N=Nc2c(O)ccc3ccccc23)c1 [C.I. Solvent Red 80]
- IC50 ([1]; read-out: Luciferase IC50 (half-maximal inhibitory concentration)): 6.97 µM
- IC50 (human CYP2C9): 6.33 µM
- IC50 (human CYP2C19): 8 µM
- IC50 (CYP3A4): 2.79 µM
- IC50 (human CYP1A2): 0.75 µM
- IC50 (human CYP2D6): 13.6 µM

Molecule: CC(C)C[C@H]1[C@@H](c2ccccc2)OC(=O)N1CCCN1CCCCCC1.Cl [Ipenoxazone hydrochloride]
- Luciferase IC50 [1]: Inactive
- CYP2C9 IC50 (human CYP2C9): Inactive
- IC50 (human CYP2C19): 2.3 µM
- IC50 (CYP3A4): 0.88 µM
- CYP1A2 IC50 (human CYP1A2): Inactive
- CYP2D6 Efficacy (human CYP2D6): 0.44 ± 0.1 (-105 ± 4) %

Molecule: CO/C=C(/C(=O)OC)c1ccccc1COc1cccc(C(F)(F)F)n1 [Picoxystrobin]
- Luciferase IC50 (half-maximal inhibitory concentration) [1]: Inactive
- AC50 (human CYP2C9): 38.4 µM
- IC50 (human CYP2C9): 38.4 µM
- AC50 (human CYP2C19): 0.99 µM
- IC50 (human CYP2C19): 0.99 µM
- AC50 (CYP3A4): 2.32 µM
- CYP3A4 IC50 (half-maximal inhibitory concentration) (CYP3A4): 2.32 ± 0.75 (38 ± 1) µM
- AC50 (human CYP1A2): 32.1 µM
- IC50 (human CYP1A2): 32.1 µM
- AC50 (human CYP2D6): 38.4 µM
- IC50 (human CYP2D6): 38.4 µM

Molecule: CCOC(=O)c1c(C)n(C)c2ccc(O)cc12 [Mecarbinate]
- Luciferase IC50 (half-maximal inhibitory concentration) [1]: Inactive
- IC50 (human CYP2C9): 12.9 µM
- IC50 (human CYP2C19): 7.23 µM
- IC50 (CYP3A4): 5.97 µM
- IC50 (human CYP1A2): 0.54 µM
- IC50 (human CYP2D6): 17.9 µM

Molecule: c1cc[c]([Bi]([c]2ccccc2)[c]2ccccc2)cc1 [Triphenylbismuth]
- Luciferase IC50 [1]: Inactive
- IC50 (human CYP2C9): 0.73 µM
- IC50 (human CYP2C19): 0.17 µM
- IC50 (CYP3A4): 2.36 µM
- CYP1A2 IC50 (human CYP1A2): Inactive
- IC50 (human CYP2D6): 31.9 µM

Molecule: CCCCCCCC[P+](CCCCCCCC)(CCCCCCCC)CCCCCCCC.[Br-] [Tetraoctylphosphonium bromide]
- IC50 ([1]; read-out: Luciferase IC50): 65.5 µM
- IC50 (human CYP2C9): 23.2 µM
- IC50 (human CYP2C19): 14 µM
- IC50 (CYP3A4): 1.73 µM
- IC50 (human CYP1A2): 57.7 µM
- IC50 (human CYP2D6): 0.75 µM

Molecule: O=C1NCN(c2ccccc2)C12CCN(CCCOc1ccc(F)cc1)CC2 [AMI-193]
- Luciferase IC50 [1]: Inactive
- CYP2C9 IC50 (human CYP2C9): Inactive
- CYP2C19 AC50 (half-maximal activity concentration) (human CYP2C19): Inconclusive inhibitor
- CYP2C19 IC50 (human CYP2C19): Inactive
- AC50 (CYP3A4): 4.72 µM
- CYP3A4 IC50 (CYP3A4): 4.72 ± 0.31 (133 ± 10) µM
- CYP1A2 IC50 (human CYP1A2): Inactive
- AC50 (human CYP2D6): 0.6 µM
- IC50 (human CYP2D6): 0.6 µM

Molecule: COC(=O)c1cc(Cl)ccc1NS(=O)(=O)C(F)(F)F [Amidoflumet]
- Luciferase IC50 (half-maximal inhibitory concentration) [1]: Inactive
- CYP2C9 IC50 (half-maximal inhibitory concentration) (human CYP2C9): Inactive
- CYP2C19 IC50 (half-maximal inhibitory concentration) (human CYP2C19): Inactive
- CYP3A4 IC50 (half-maximal inhibitory concentration) (CYP3A4): Inactive
- IC50 (human CYP1A2): 0.91 µM
- CYP2D6 IC50 (half-maximal inhibitory concentration) (human CYP2D6): Inactive

Molecule: CCCCCCCCCCCCCCCCn1cc[n+](C)c1.[Cl-] [1-Hexadecyl-3-methylimidazolium chloride]
- Luciferase IC50 (half-maximal inhibitory concentration) [1]: Inactive
- CYP2C9 Efficacy (in parenthesis) (human CYP2C9): 55.36 ± 23.27 (-121 ± 6) %
- IC50 (human CYP2C9): 55.4 µM
- CYP2C19 Efficacy (in parenthesis) (human CYP2C19): 52.99 ± 35.71 (-145 ± 35) %
- IC50 (human CYP2C19): 53 µM
- CYP3A4 Efficacy (in parenthesis) (CYP3A4): 63.62 ± 15.46 (-70 ± 19) %
- IC50 (CYP3A4): 63.6 µM
- CYP1A2 Efficacy (in parenthesis) (human CYP1A2): 69.7 ± 29.29 (-90 ± 28) %
- IC50 (human CYP1A2): 69.7 µM
- CYP2D6 Efficacy (in parenthesis) (human CYP2D6): 0.38 ± 0.13 (-102 ± 3) %
- IC50 (human CYP2D6): 0.38 µM

— paper PMC12155096 (International Journal of Molecular Sciences, 2025)
